Measured values as given in ChEMBL document CHEMBL5137070, “N-2-(Phenylamino) Benzamide Derivatives as Dual Inhibitors of COX-2 and Topo I Deter Gastrointestinal Cancers via Targeting Inflammation and Tumor Progression” (J Med Chem, 2022).
Calls of active or inactive are those of the source. The rule behind the calls is not given here.

Assays:
[1] = test system: HGC-27; experiment: Induction of apoptosis in human HGC-27 cells assessed as increase in caspase-3 activity at 1.1 uM incubated for 36 hrs by flow cytometry (Rvb= 9.39%); format: functional
[2] = test system: HGC-27; experiment: Induction of apoptosis in human HGC-27 cells assessed as increase in cleaved caspase-9 expression at 1.1 to 10 uM incubated for 24 hrs by western blot assay; format: functional, cell-based; conditions: dose 1.1-10 µM
[3] = test system: RKO; experiment: Induction of cell cycle arrest in human RKO cells assessed as accumulation at G2/M phase at 3.3 to 10 uM for 24 hrs by propidium iodide staining based flow cytometry; format: functional; conditions: dose 3.3-10 µM
[4] = test system: CT26.WT; experiment: Anti-tumor activity against mouse CT26.WT xenografted in BALB/c mouse assessed as decrease in COX-2 expression level in tumor tissue at 100 mg/kg, ip twice daily and measured after 14 days by immunohistochemical analysis; format: functional, organism-based; conditions: time 14.0 day
[5] = test system: HGC-27; experiment: Induction of cell cycle arrest in human HGC-27 cells assessed as accumulation at G2/M phase at 3.3 to 10 uM for 24 hrs by propidium iodide staining based flow cytometry; format: functional; conditions: dose 3.3-10 µM
[6] = AUC (0 to infinity) in Sprague-Dawley rat at 100 mg/kg, ip and measured upto 8 hrs by LC-MS/MS analysis; format: ADME, organism-based; parameters: dose 100 mg/kg, time < 8 hrs, route ip; conditions: in vivo
[7] = test system: RKO; experiment: Induction of apoptosis in human RKO cells assessed as increase in caspase-3 activity at 1.1 uM incubated for 36 hrs by flow cytometry (Rvb= 1.08%); format: functional
[8] = test system: RAW264.7; experiment: Inhibition of LPS induced NO production in mouse RAW264.7 cells at 1.1 uM incubated for 1 hrs followed by LPS stimulation and measured after 24 hrs by Griess reagent based assay; format: functional, cell-based; conditions: time 25.0 hrs
[9] = test system: HGC-27; experiment: Anti-migration activity against human HGC-27 cells assessed as decrease in cell migration rate at 0.37 uM for 48 hrs by crystalline violet staining based assay; format: functional
[10] = Acute toxicity in Kunming mouse assessed as mortality at 100 mg/kg,ip and measured upto 14 days; format: organism-based; conditions: in vivo, 336 h, time < 14 day
[11] = test system: RAW264.7; experiment: Antiinflammatory activity against LPS-stimulated mouse RAW264.7 cells assessed decrease in IL-1beta release at 1.1 uM incubated for 1 hrs followed by LPS stimulation and measured after 24 hrs by ELISA; format: functional, cell-based; conditions: time 25.0 hrs
[12] = test system: RKO; experiment: Antiproliferative activity against human RKO cells assessed as cell viability at <= 0.41 uM for 48 hrs by MTT assay; format: functional; conditions: up to 0.41 µM
[13] = test system: CT26.WT; experiment: Anti-tumor activity against mouse CT26.WT xenografted in BALB/c mouse assessed as increase in cleaved caspase-3 expression level at 100 mg/kg, ip twice daily and measured after 14 days by immunohistochemical analysis; format: functional, organism-based; conditions: time 14.0 day
[14] = test system: RAW264.7; experiment: Antiinflammatory activity in mouse RAW264.7 cells assessed as reduction in LPS-induced COX-2 expression at 6.6 uM incubated for 1 hrs followed by LPS stimulation and measured after 24 hrs by western blot analysis; format: functional, cell-based; conditions: time 25.0 hrs
[15] = test system: RKO; experiment: Effect on cell morphology in human RKO cells assessed as contracted nucleus at 10 uM incubated for 48 hrs by giemsa staining based microscopic analysis; format: functional
[16] = test system: HGC-27; experiment: Induction of apoptosis in human HGC-27 cells assessed as increase in Bax/Bcl-2 ratio expression at 1.1 to 10 uM incubated for 24 hrs by western blot assay; format: functional, cell-based; conditions: dose 1.1-10 µM
[17] = test system: RKO; experiment: Anti-migration activity against human RKO cells assessed as inhibition of cell migration at 0.37 uM and measured after 24 hrs by wound healing assay; format: functional, cell-based
[18] = test system: HGC-27; experiment: Induction of pro-apoptosis in human HGC-27 assessed as DNA breakdown by analyzing DNA ladder at 1.1 to 10 uM for 36 hrs by ethidium bromide staining based agarose gel electrophoresis; format: functional, cell-based; conditions: dose 1.1-10 µM
[19] = Tmax in Sprague-Dawley rat at 100 mg/kg, ip and measured upto 8 hrs by LC-MS/MS analysis; format: ADME, organism-based; conditions: in vivo
[20] = test system: CT26.WT; experiment: Anti-tumor activity against mouse CT26.WT xenografted in BALB/c mouse assessed as decrease in tumor size at 100 mg/kg, ip twice daily and measured upto 14 days relative to control; format: functional, organism-based; conditions: time <= 14.0 day
[21] = test system: RKO; experiment: Effect on cell morphology in human RKO cells assessed as appearance of round cells at 10 uM incubated for 48 hrs by giemsa staining based microscopic analysis; format: functional
[22] = test system: RKO; experiment: Induction of apoptosis in human RKO cells assessed as increase in cleaved caspase-9 expression at 1.1 to 10 uM incubated for 24 hrs by western blot assay; format: functional, cell-based; conditions: dose 1.1-10 µM
[23] = test system: RAW264.7; experiment: Cytotoxicity against mouse RAW264.7 cells assessed as reduction in cell viability at <=11.11 for 24 hrs by MTT assay; format: toxicity, cell-based; conditions: raw264.7, 24 h
[24] = test system: HGC-27; experiment: Induction of mitochondrial membrane loss in human HGC-27 at 1.1 to 10 uM and measured after 36 hrs by TMRE dye based flow cytometry; format: functional, cell-based; conditions: dose 1.1-10 µM, DDE = dose-dependent effect
[25] = target: T1, Nuclear factor NF-kappa-B complex (Homo sapiens) (UniProt Q00653+P19838+Q04206); experiment: Inhibition of NF-kappaB activation in human RKO cells assessed as downregulation of NF-kappaB phosphorylation at 10 uM for 48 hrs by DAPI staining based immunofluorescence assay; format: cell-based
[26] = test system: HT-29; experiment: Antiproliferative activity against human HT-29 cells assessed as reduction in cell proliferation incubated for 48 hrs by MTT assay; format: functional, cell-based; conditions: HT-29, 48 h
[27] = test system: HGC-27; experiment: Effect on cell morphology in human HGC-27 cells assessed as condensed morphology at 10 uM incubated for 48 hrs by giemsa staining based microscopic analysis; format: functional
[28] = test system: RKO; experiment: Effect on cell morphology in human RKO cells assessed as lose of adherence at 10 uM incubated for 48 hrs by giemsa staining based microscopic analysis; format: functional
[29] = AUC (0 to t) in Sprague-Dawley rat at 100 mg/kg, ip and measured upto 8 hrs by LC-MS/MS analysis; format: ADME, organism-based; parameters: dose 100 mg/kg, time < 8 hrs, route ip; conditions: in vivo
[30] = target: T1, Nuclear factor NF-kappa-B complex (Homo sapiens); experiment: Inhibition of NF-kappaB activation in human HT-29 cells assessed as reduction in TNFalpha-stimulated NF-kappaB nuclear translocation at 10 uM for 24 hrs followed by TNF- alpha stimulation for 1 hrs by DAPI staining based immunofluorescence assay; format: cell-based; conditions: time 25.0 hrs

T1 sequence (P19838 whole entry, looked up): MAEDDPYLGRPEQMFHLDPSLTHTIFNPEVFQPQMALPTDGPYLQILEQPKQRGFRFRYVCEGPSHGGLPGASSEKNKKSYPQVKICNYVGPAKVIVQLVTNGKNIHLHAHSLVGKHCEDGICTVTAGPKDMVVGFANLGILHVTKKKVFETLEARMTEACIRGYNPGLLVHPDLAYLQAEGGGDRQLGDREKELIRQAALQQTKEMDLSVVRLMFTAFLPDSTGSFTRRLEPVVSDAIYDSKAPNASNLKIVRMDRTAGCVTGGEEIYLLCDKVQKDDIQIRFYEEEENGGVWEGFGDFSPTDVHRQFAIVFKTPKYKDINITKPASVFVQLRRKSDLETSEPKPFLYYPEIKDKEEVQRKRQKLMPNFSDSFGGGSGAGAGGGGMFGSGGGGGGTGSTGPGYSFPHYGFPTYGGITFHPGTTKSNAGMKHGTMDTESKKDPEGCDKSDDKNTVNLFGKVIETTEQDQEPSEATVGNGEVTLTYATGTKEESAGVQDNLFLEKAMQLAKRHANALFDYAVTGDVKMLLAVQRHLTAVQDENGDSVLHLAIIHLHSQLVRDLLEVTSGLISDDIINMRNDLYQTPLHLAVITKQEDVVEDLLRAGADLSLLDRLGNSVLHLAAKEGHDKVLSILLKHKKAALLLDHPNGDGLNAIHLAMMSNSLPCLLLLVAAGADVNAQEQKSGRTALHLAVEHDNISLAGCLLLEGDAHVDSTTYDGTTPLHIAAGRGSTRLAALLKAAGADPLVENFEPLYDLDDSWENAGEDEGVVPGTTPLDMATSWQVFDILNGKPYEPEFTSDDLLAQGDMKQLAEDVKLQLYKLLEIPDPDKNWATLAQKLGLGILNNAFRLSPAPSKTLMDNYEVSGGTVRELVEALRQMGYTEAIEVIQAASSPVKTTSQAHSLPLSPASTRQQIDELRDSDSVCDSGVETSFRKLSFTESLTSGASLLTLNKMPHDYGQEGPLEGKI
T1 sequence (Q00653 whole entry, looked up): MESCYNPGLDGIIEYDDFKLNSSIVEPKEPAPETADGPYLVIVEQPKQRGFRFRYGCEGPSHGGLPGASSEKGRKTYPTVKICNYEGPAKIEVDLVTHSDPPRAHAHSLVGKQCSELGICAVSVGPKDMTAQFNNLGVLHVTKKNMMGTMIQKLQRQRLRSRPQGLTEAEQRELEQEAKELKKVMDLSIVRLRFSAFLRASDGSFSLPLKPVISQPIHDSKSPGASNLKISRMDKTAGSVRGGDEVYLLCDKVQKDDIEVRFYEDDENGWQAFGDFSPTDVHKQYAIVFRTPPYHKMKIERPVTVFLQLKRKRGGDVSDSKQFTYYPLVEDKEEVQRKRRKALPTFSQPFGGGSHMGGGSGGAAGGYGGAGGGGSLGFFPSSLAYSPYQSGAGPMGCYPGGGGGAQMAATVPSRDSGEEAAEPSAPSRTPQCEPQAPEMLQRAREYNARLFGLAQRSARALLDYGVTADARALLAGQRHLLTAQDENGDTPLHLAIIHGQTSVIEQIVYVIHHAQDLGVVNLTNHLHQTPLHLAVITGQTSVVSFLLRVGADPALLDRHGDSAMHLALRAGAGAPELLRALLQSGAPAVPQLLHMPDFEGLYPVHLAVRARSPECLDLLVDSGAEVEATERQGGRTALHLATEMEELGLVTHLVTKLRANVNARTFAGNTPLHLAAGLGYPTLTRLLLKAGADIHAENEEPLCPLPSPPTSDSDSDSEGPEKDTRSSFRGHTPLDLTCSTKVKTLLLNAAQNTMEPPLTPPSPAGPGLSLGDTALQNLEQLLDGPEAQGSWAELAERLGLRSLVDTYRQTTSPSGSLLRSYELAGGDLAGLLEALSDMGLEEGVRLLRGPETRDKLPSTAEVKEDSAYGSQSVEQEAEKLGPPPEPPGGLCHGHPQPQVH
T1 sequence (Q04206 whole entry, looked up): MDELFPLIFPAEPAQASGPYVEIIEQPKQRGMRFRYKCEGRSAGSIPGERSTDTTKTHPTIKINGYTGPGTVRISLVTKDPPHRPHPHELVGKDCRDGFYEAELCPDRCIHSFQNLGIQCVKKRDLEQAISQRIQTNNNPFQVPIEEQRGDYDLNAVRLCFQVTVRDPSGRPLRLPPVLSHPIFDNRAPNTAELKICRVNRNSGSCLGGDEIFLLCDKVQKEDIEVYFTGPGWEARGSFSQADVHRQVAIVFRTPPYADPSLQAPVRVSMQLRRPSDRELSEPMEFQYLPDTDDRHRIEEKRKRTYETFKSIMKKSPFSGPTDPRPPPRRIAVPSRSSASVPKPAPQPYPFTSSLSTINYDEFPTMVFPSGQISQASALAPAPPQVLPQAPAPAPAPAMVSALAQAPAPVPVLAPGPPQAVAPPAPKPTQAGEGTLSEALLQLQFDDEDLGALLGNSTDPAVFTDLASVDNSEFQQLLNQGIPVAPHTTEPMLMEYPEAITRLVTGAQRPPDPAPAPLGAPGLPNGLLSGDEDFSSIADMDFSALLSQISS

Cc1c(Cl)cccc1Nc1ccc(F)cc1C(=O)NCc1ccc(O)c(O)c1
Activity [1]: 57.64%
Activity [2]: Active
Activity [3]: Active
Activity [4]: Active
Activity [5]: Active
AUC(0-inf) [6]: 18600 ng·h/mL
Activity [7]: 33.77%
inhibition [8]: Active
Activity [9]: Active
Activity [10]: Non-Toxic
Activity [11]: Active
Activity [12]: >80%
Activity [13]: Active
Activity [14]: Active
Activity [15]: Active
Activity [16]: Active
Activity [17]: Active
Activity [18]: Active
Tmax [19]: 40.2 min
Activity [20]: Active
Activity [21]: Active
Activity [22]: Active
Activity [23]: > 80%
Activity [24]: Dde
inhibition [25]: Active
IC50 [26]: 16.9 µM
Activity [27]: Active
Activity [28]: Active
AUC(0-t) at 8 h [29]: 18200 ng·h/mL
inhibition [30]: Active
